Results reported in patent US20110070232A1, “Combination Therapy with an Antitumor Alkaloid” (Pharma Mar, S.A., priority 2008, published 2011).
Where two headings read alike, the source gives them in different places.

Tested on: MRI-H-254 tumors
Format: in vivo, mice
Conditions: for % T/C on day 17 / % T/C on day 20 / % T/C on day 24 / % T/C on day 27 / % T/C on day 32 / % T/C on day 35 / % T/C on day 39 / % T/C on day 47: doxorubicin 6 IP
Description: Female athymic nude mice (Harlan Sprague Dawley, Madison, Wis.) were utilized for all experiments. Animals were housed in ventilated rack caging with food and water ad libitum. The mice were acclimated for at least 5 days prior to tumor implantation with tumor fragments. The Vehicle Control group contained 11 mice, groups 2-6 contained 8 mice/group, and the rest of groups contained 9 mice/group.
This cell line was grown and implanted to the animals as described in Example 11.
Tumor measurements were determined as disclosed in Example 4. […] Treatments were initiated on DPI 17.
PM00104 was provided in the form of vials of lyophilized PM00104 powder which was reconstituted with water for injection.
Tumor size measurements were recorded twice weekly from the treatment initiation until the termination of the study.
Mean, standard deviation and standard error of the mean were determined for tumor volume for all animal groups at all assessments. Student's t test was performed on tumor volumes at each measurement day, including at the end of the study, to determine whether there were any statistically significant differences between combination treatment groups and single monotherapy treatment groups.
The definition and criteria for the evaluation of potentiation and the degree of additivity for the combination therapy were the same as those disclose in Example 4.

[1] = PM00104 0.23 IV, paclitaxel 12.5 IP mg/kg/day (G4, G11, G12)
[2] = PM00104 0.45 IV, paclitaxel 12.5 IP mg/kg/day (G3, G9, G10)
[3] = PM00104 0.90 IV, paclitaxel 12.5 IP mg/kg/day (G2, G5, G6, G7, G8)

Which “% T/C on day 17” value [1] does the source give for `COc1c(C)cc2c(c1O)[C@@H]1[C@@H]3Cc4c(OC(C)=O)c(C)c5c(c4[C@H](CNC(=O)/C=C/c4cccc(C(F)(F)F)c4)N3[C@@H](O)[C@H](C2)N1C)OCO5` [PM00104] here?
The value was 97.5%.

And the “% T/C on day 20” value [1]?
Its value is 113.0%.

And the “% T/C on day 24” value [1]?
Its value is 89.9%.

What about the “% T/C on day 27” value [1] of the same compound?
The value was 75.9%.

What about the “% T/C on day 32” value [1] of the same compound?
Its value is 72.7%.

And the “% T/C on day 35” value [1]?
The value was 62.4%.

What about the “% T/C on day 39” value [1] of the same compound?
Its value is 57.6%.

What about the “% T/C on day 47” value [1] of the same compound?
Its value is 66.8%.

What about the “% T/C on day 17” value [2] of the same compound?
The value was 100.0%.

And the “% T/C on day 20” value [2]?
The value was 109.2%.

And the “% T/C on day 24” value [2]?
Its value is 91.3%.

What about the “% T/C on day 27” value [2] of the same compound?
Its value is 71.0%.

And the “% T/C on day 32” value [2]?
Its value is 51.8%.

What about the “% T/C on day 35” value [2] of the same compound?
The value was 38.4%.

And the “% T/C on day 39” value [2]?
Its value is 31.8%.

And the “% T/C on day 47” value [2]?
The value was 21.5%.

What about the “% T/C on day 17” value [3] of the same compound?
The value was 98.5%.

What about the “% T/C on day 20” value [3] of the same compound?
Its value is 95.6%.

What about the “% T/C on day 24” value [3] of the same compound?
Its value is 56.9%.

What about the “% T/C on day 27” value [3] of the same compound?
Its value is 46.4%.

What about the “% T/C on day 32” value [3] of the same compound?
The value was 31.2%.

And the “% T/C on day 35” value [3]?
Its value is 22.6%.

What about the “% T/C on day 39” value [3] of the same compound?
The value was 14.5%.

What about the “% T/C on day 47” value [3] of the same compound?
The value was 9.5%.

And the “% Inhibition” value (day 14, PM00104 0.23, doxorubicin 6, paclitaxel 12.5 mg/kg/day)?
Its value is 2.5%.

And the “% Inhibition” value (day 14, PM00104 0.45, doxorubicin 6, paclitaxel 12.5 mg/kg/day)?
Its value is 0.0%.

What about the “% Inhibition” value (day 14, PM00104 0.90, paclitaxel 12.5 mg/kg/day) of the same compound?
The value was 1.5%.

What about the “% Inhibition” value (day 14, PM00104 0.9 and doxorubicin 6 mg/kg/day) of the same compound?
Its value is 1.5%.

And the “% Inhibition” value (day 20, PM00104 0.23, doxorubicin 6, paclitaxel 12.5 mg/kg/day)?
The value was −13.0%.

What about the “% Inhibition” value (day 20, PM00104 0.45, doxorubicin 6, paclitaxel 12.5 mg/kg/day) of the same compound?
The value was −9.2%.

What about the “% Inhibition” value (day 20, PM00104 0.90, paclitaxel 12.5 mg/kg/day) of the same compound?
Its value is 4.4%.

What about the “% Inhibition” value (day 20, PM00104 0.9 and doxorubicin 6 mg/kg/day) of the same compound?
The value was 4.4%.

What about the “% Inhibition” value (day 24, PM00104 0.23, doxorubicin 6, paclitaxel 12.5 mg/kg/day) of the same compound?
The value was 10.1%.

And the “% Inhibition” value (day 24, PM00104 0.45, doxorubicin 6, paclitaxel 12.5 mg/kg/day)?
Its value is 8.7%.

What about the “% Inhibition” value (day 24, PM00104 0.90, paclitaxel 12.5 mg/kg/day) of the same compound?
Its value is 43.1%.

What about the “% Inhibition” value (day 24, PM00104 0.9 and doxorubicin 6 mg/kg/day) of the same compound?
The value was 43.1%.

What about the “% Inhibition” value (day 27, PM00104 0.23, doxorubicin 6, paclitaxel 12.5 mg/kg/day) of the same compound?
Its value is 24.1%.

What about the “% Inhibition” value (day 27, PM00104 0.45, doxorubicin 6, paclitaxel 12.5 mg/kg/day) of the same compound?
The value was 29.0%.

And the “% Inhibition” value (day 27, PM00104 0.90, paclitaxel 12.5 mg/kg/day)?
Its value is 53.6%.

What about the “% Inhibition” value (day 27, PM00104 0.9 and doxorubicin 6 mg/kg/day) of the same compound?
Its value is 53.6%.

What about the “% Inhibition” value (day 32, PM00104 0.23, doxorubicin 6, paclitaxel 12.5 mg/kg/day) of the same compound?
Its value is 27.3%.

And the “% Inhibition” value (day 32, PM00104 0.45, doxorubicin 6, paclitaxel 12.5 mg/kg/day)?
The value was 48.2%.

What about the “% Inhibition” value (day 32, PM00104 0.90, paclitaxel 12.5 mg/kg/day) of the same compound?
Its value is 68.8%.

What about the “% Inhibition” value (day 32, PM00104 0.9 and doxorubicin 6 mg/kg/day) of the same compound?
The value was 68.8%.

What about the “% Inhibition” value (day 35, PM00104 0.23, doxorubicin 6, paclitaxel 12.5 mg/kg/day) of the same compound?
Its value is 37.6%.

What about the “% Inhibition” value (day 35, PM00104 0.45, doxorubicin 6, paclitaxel 12.5 mg/kg/day) of the same compound?
Its value is 61.6%.

What about the “% Inhibition” value (day 35, PM00104 0.90, paclitaxel 12.5 mg/kg/day) of the same compound?
Its value is 77.4%.

What about the “% Inhibition” value (day 35, PM00104 0.9 and doxorubicin 6 mg/kg/day) of the same compound?
The value was 77.4%.

And the “% Inhibition” value (day 39, PM00104 0.23, doxorubicin 6, paclitaxel 12.5 mg/kg/day)?
Its value is 42.4%.

And the “% Inhibition” value (day 39, PM00104 0.45, doxorubicin 6, paclitaxel 12.5 mg/kg/day)?
The value was 68.2%.

What about the “% Inhibition” value (day 39, PM00104 0.90, paclitaxel 12.5 mg/kg/day) of the same compound?
The value was 85.5%.

And the “% Inhibition” value (day 39, PM00104 0.9 and doxorubicin 6 mg/kg/day)?
Its value is 85.5%.

And the “% Inhibition” value (day 47, PM00104 0.23, doxorubicin 6, paclitaxel 12.5 mg/kg/day)?
The value was 33.2%.
